2 substances from patent US20180265867A1, “NUCLEIC ACID MOLECULES WITH ENHANCED ACTIVITY” (priority 2015, published 2018) can be followed below.

d = 2'-deoxy (DNA); r = 2'-OH (RNA)

Holding throughout (type): cell-based, human
One series concerns GAPDH. Kind of series: GAPDH gene knockdown in MG63 cells by RT-PCR. To be noted: for GAPDH gene knockdown: 50 nM, 24 h. Here is the method:
At 70% confluency, a day prior to transfection, the cells were seeded at a density of 35 000 cells in a 24-well cell culture plate to achieve 60-80% confluence at the day of transfection. Cell penetrating siRNAs (cpRNAs) of different lengths were transfected at 50 nM concentrations with Magnet Assisted Transfection (MATra-si) reagent for siRNAs (IBA GmbH, Göttingen, Germany) according to the manufacturers' protocols. Briefly, the siRNA was mixed with MATra-si reagent composed of supermagnetic ironoxide nanoparticles and incubated for 20 min. A complex was formed which was added to the cells to be transfected. A strong magnetic force was applied beneath the cells for 15 min. This forced the complex to be drawn into the cells by the magnetic field, and as a result the siRNA was delivered directly into the cytosol. For carrier free transfection experiments, cpRNAs were simply added to cells lines MG63, HOB, HCT116, fibroblasts and keratinocytes at 50 nM concentrations. Cells were also transfected with negative control siRNA (scrambled sequence) and cells left untreated were taken as controls. Each transfection was performed in triplicate. Post transfection, cells were incubated for 24 hours.
For the experiments involving lysosomotropic agent chloroquine (CQ), CQ was first neutralized to pH 7.4 using 1 M NaOH prior to use. MG63 cells were transfected with dT2, dT5, dT8, (dT5)2, as(dT5), and bl(dT5) siRNA in presence or absence of 100 μM CQ or using MATra-si and incubated for 24 h. Similar experiments were performed for other cpRNAs namely, dA5, dT5, dG5, (dT5)2, rA5 and dC5. For the control experiment, cells were either left untreated or transfected with negative control siRNA (scrambled sequence). Each transfection experiment was performed in triplicate.
After performing transfection experiments for 24 h, 48 h and 72 h respectively, total RNA was isolated from cells by adding 500 μl of lysis buffer (Qiagen, Germany), followed by homogenization of cell lysates using QIAshredder (Qiagen, Germany). RNA was extracted from cell lysates by RNeasy Mini Kit (Qiagen, Germany). All RNA samples were treated with DNase using TURBO-DNAfree (Ambion, USA). Agilent 2100 BioAnalyzer (Agilent Technologies, Palo Alto, Calif.) was used to confirm high quality of all RNA samples, which reports an RNA Integrity Number (RIN) that takes into account the entire electrophoretic RNA trace produced in the analysis. A RIN of greater than or equal to seven indicates the RNA is suitable for high stringency applications.
cDNA synthesis was performed in triplicate using total RNA reverse transcribed using High Capacity cDNA reverse transcription kit (Applied Biosystems, USA), with non-template control added to ensure a lack of signal in assay background. Reactions were incubated on a 96-well Applied Biosystems 9800 Fast Thermal Cycler PCR System at 37° C. for 60 min followed by 95° C. for 5 min. The real-time PCR reactions were carried out with 10 μl of 2×TaqMan® Universal PCR Master Mix, no AmpErase® UNG (Applied Biosystems, USA), 9 μl diluted cDNA, and 1 μl of TaqMan gene specific assay mix in a 20 μl final reaction volume. Reference gene beta-actin (ACTB) (Applied Biosystems, USA) was selected as control for normalization of TaqMan data. The assay included a no-template control, a standard curve of five serial dilution points (in steps of 3-fold) of cDNA mixture. Probes specific for IFN-α (Hs01022060_m1), IFN-β (Hs01077958_s1), IFN-γ (Hs00985251_m1), ACTB(Hs01060665_g1) and GAPDH (Hs02758991_g1) were purchased from Applied Biosystems. The amplification was carried out using the 7500 Fast Real-Time PCR System (Applied Biosystems, USA) using a 40-cycle program. The 7500 software automatically calculates raw Ct (cycle threshold) values. Data from samples with a Ct value equal to or below 35 were further analyzed. […]

A further series relates to MG63 cells. As to the kind of experiment: Fluorescence / confocal microscopy of cellular distribution in MG63 cells. To be noted: fluorescently labelled, transfection reagent free. Here is the method: Cellular uptake experiments were performed by plating cells (1×10^4) in an 8 well chamber slide. At 70% confluency, the cells were transfected with 50 nM Cy3-cpRNA and incubated at 37° C. for 24 h. Control wells were left untreated. Each transfection was performed in triplicate. […] The slides were mounted using Vectashield mounting medium containing 4′, 6-diamidino-2-phenylindole (DAPI) (Vector Labs, Burlingame, Calif.) to stain the nuclei of cells.
MG63—human osteosarcoma cells were cultured in α-MEM (Sigma-Aldrich, Haverhill, UK) medium containing 10% FBS, 1% L-Glutamine, and 1% antibiotics (PeSt) at 37° C. with 5% CO2. One day prior to the siRNA treatment, 35,000 cells were plated per each well of a 24-well plate. On the experiment day, cells were replaced with 10% heat inactivated-FBS containing α-MEM medium with 1% L-Glutamine, and 1% antibiotics (PeSt). Fluorescently (Cy3) labelled CP-siRNA and nicked CP-siRNA having GAPDH targeting sequence (final concentration: 50 nM) was given to the each well. After 24 hours the cells were washed with PBS and fixed with 4% formaldehyde for 20 mins at room temperature and then washed twice with PBS. DAPI (1 ug/ml in PBS) was added to cells for 5 mins and then washed with PBS. The cells were then visualized in Nikon TiU at 20×+1.5× and analysed with the Nikon Imaging software.

The test system of a further series is MG63 and HOB cells. As to the kind of experiment: Cell proliferation / toxicity by MTS assay. Conditions: 50 and 100 nM, 24 h post transfection. As for the experimental part: Cell proliferation was assessed by MTS (3-(4,5-dimethylthiazol-2-yl)-5-(3-carboxymethoxyphenyl)-2-(4-sulfophenyl)-2H-tetrazolium, inner salt) reagent assay: MG63 cells were seeded at a density of 35 000 cells in 24-well culture plates, and cultured for 24 hours as mentioned above. Cells were transfected with 50 nM or 100 nM concentrations of cpRNA and negative control siRNAs with or without MATra-si, while control wells were left untreated. Each transfection experiment was performed in triplicate. Post-transfection, cells were incubated for 24 hours at 37° C. The viable cells were evaluated by MTS assay, using CellTiter 96®AQueousOne Solution Cell Proliferation Assay (Promega, USA) according to the manufacturer's protocol. The enzymatic reduction in MTS to formazan was quantified by an ELISA plate reader (Thermo Scientific) at 490 nm.
Thus, the role of siRNA topography on immune activation and cellular toxicity was investigated because increased RNA length has been reported to cause toxicity with increased interferon (IFN)-β expression. toxicity studies were performed using the MTS assay with two concentrations of GAPDH siRNA (50 and 100 nM) with different overhang lengths (dT2, dT5, and dT8) in MG63 and HOB cells and compared it with the scrambled siRNA sequence (FIG. 5).
On the technique in general: Tetrazolium assays rely on reduction of a dye to a coloured formazan, in cell work by metabolically active cells.

The mark [1] stands for this setting: MG63 cells, MATra-si transfection.
Where [2] appears, read: MG63 cells, carrier-free transfection.

On to “dT2: Canonical GAPDH siRNA, sense SEQ ID NO: 1, antisense SEQ ID NO: 2, dTdT 3′-overhang on both strands (sense CCGAGCCACAUCGCUCAGATT; antisense UCUGAGCGAUGUGGCUCGGTT; sugars from the 5' end r19 d2, backbone not given here) [reference compound]”, for which the GAPDH gene knockdown with GAPDH (setting [1]) came out at 60%; in the series on GAPDH (setting [2]), 28%. In the series on MG63 cells, the cellular distribution result is recorded as “localized distribution to endosome”. Besides, the “cytotoxicity (MTS assay)” value in the series on MG63 and HOB cells is recorded as “do not impose toxicity”.

Take “dT5: GAPDH siRNA, sense SEQ ID NO: 3 with dT5 3′-overhang, antisense SEQ ID NO: 2 with dT2 (sense CCGAGCCACAUCGCUCAGATTTTT; antisense UCUGAGCGAUGUGGCUCGGTT; sense: sugars from the 5' end r19 d5, backbone not given here; antisense: sugars from the 5' end r19 d2, backbone not given here)”: in the series with GAPDH (MG63, 50 nM, 24, 48 and 72 h, cpRNA without transfection reagent vs canonical siRNA with transfection reagent), the “GAPDH mRNA knockdown efficiency over time” value is “higher gene knockdown efficiency for over 72 hrs”. The “RNAi activity among different 5-nt candidates” value in the series with GAPDH (MG63 cells, FIG. 2B) is on record as “highest RNAi activity”. For the same substance, the “enhancement in activity compared to canonical siRNA” value in the series on GAPDH (setting [1]) was 20%. The GAPDH gene knockdown in the series on GAPDH (setting [2]) came to 80%. Further, in the series with MG63 cells, the cellular distribution result is reported as “perinuclear localization within cytosol”. In the series with MG63 and HOB cells, the “cytotoxicity (MTS assay)” value is “do not impose toxicity”.
